# Laboratory results as given in US20230331731A1, “CRYSTAL FORM OF PYRROLO HETEROCYCLIC DERIVATIVE AND PREPARATION METHOD THEREFOR” (Jiangsu Hengrui Pharmaceuticals Co., Ltd., priority 2020, published 2023).
# How the values were obtained:
# Assay type in all cases: physicochemical
# [1] = DVS (dynamic vapor sorption) analysis
# Description: DVS refers to dynamic vapor sorption: The measurement was conducted on SMS DVS Advantage; at 25° C., the humidity was changed as follows: 50%-95%-0%-95%-50%, in steps of 10% (5% for the last step) (specific humidity ranges are shown in corresponding graphs, and those listed here were used in most cases); the criterion was dm/dt being no greater than 0.002%.
# [2] = Influencing factor stability study
# [3] = Long-term/accelerated stability study
# Description: 1. The hydrobromide in crystal form α was left to stand under 25° C., 60% RH conditions and 40° C., 75% RH conditions to investigate its stability.
# 4. The fumarate in crystal form II was subjected to 6-month long-term (25° C., 60% RH) and accelerated (40° C., 75% RH) stability studies.
# [4] = 40° C., open, 30 days (5/10/30-day study)
# [5] = 60° C., open, 30 days (5/10/30-day study)
# [6] = 4500 Lux, open, 30 days (5/10/30-day study)
# [7] = RH 75%, open, 30 days (5/10/30-day study)
compound,measurement,setting,value
Cn1nccc1Nc1nccc(-c2cc3n(c2)C(=O)N([C@H](CO)c2cccc(Cl)c2)C3)n1.O=C(O)/C=C/C(=O)O [Fumarate in crystal form II],moisture-absorption weight gain,"[1]; accelerated conditions, 70% RH",about 2.75%
same,moisture-absorption weight gain,"[1]; extreme conditions, 90% RH",about 3.85%
same,moisture-absorption weight gain,"[1]; normal conditions, 25° C., 60% RH",about 2.38%
same,crystal form after DVS analysis,[1]; re-examined after DVS,did not change
same,Color and appearance,"[2]; 40° C., open, 5 days",White solid
same,Purity,"[2]; 40° C., open, 5 days",99.6%
same,Color and appearance,"[2]; 40° C., open, 10 days",White solid
same,Purity,"[2]; 40° C., open, 10 days",99.5%
same,Color and appearance,[2]; [4],White solid
same,Purity,[2]; [4],99.2%
same,Color and appearance,"[2]; 60° C., open, 5 days",White solid
same,Purity,"[2]; 60° C., open, 5 days",99.5%
same,Color and appearance,"[2]; 60° C., open, 10 days",White solid
same,Purity,"[2]; 60° C., open, 10 days",99.5%
same,Color and appearance,[2]; [5],White solid
same,Purity,[2]; [5],98.0%
same,Color and appearance,"[2]; 4500 Lux, open, 5 days",White solid
same,Purity,"[2]; 4500 Lux, open, 5 days",99.6%
same,Color and appearance,"[2]; 4500 Lux, open, 10 days",White solid
same,Purity,"[2]; 4500 Lux, open, 10 days",99.6%
same,Color and appearance,[2]; [6],White solid
same,Purity,[2]; [6],98.4%
same,Color and appearance,"[2]; Initial, 0 days (30-day study)",White solid
same,Purity,"[2]; Initial, 0 days (30-day study)",99.7%
same,Color and appearance,"[2]; RH 75%, open, 5 days",White solid
same,Purity,"[2]; RH 75%, open, 5 days",99.7%
same,Weight gain,"[2]; RH 75%, open, 5 days",0.54%
same,Color and appearance,"[2]; RH 75%, open, 10 days",White solid
same,Purity,"[2]; RH 75%, open, 10 days",99.7%
same,Weight gain,"[2]; RH 75%, open, 10 days",1.03%
same,Weight gain,"[2]; RH 75%, open, 30 days",1.42%
same,Color and appearance,[2]; [7],White solid
same,Purity,[2]; [7],99.7%
same,Color and appearance,"[2]; RH 90%, open, 5 days",White solid
same,Purity,"[2]; RH 90%, open, 5 days",99.7%
same,Weight gain,"[2]; RH 90%, open, 5 days",1.16%
same,Color and appearance,"[2]; RH 90%, open, 10 days",White solid
same,Purity,"[2]; RH 90%, open, 10 days",99.7%
same,Weight gain,"[2]; RH 90%, open, 10 days",2.77%
same,Color and appearance,"[2]; RH 90%, open, 30 days",White solid
same,Purity,"[2]; RH 90%, open, 30 days",99.7%
same,Weight gain,"[2]; RH 90%, open, 30 days",3.97%
same,physical and chemical stability (conclusion),"[2]; high-temperature conditions (40° C. and 60° C.) and high-humidity conditions (75% and 92.5%), 30 days",relatively good physical and chemical stability
same,"Purity, 1 month","[3]; 25° C., 60%RH",99.7%
same,"Purity, 2 months","[3]; 25° C., 60%RH",99.7%
same,"Purity, 3 months","[3]; 25° C., 60%RH",99.7%
same,"Purity, 6 months","[3]; 25° C., 60%RH, 6 months",99.7%
same,"Purity, 1 month","[3]; 40° C., 75%RH",99.7%
same,"Purity, 2 months","[3]; 40° C., 75%RH",99.7%
same,"Purity, 3 months","[3]; 40° C., 75%RH",99.7%
same,"Purity, 6 months","[3]; 40° C., 75%RH, 6 months",99.7%
same,"Purity, Initial",[3]; Initial,99.7%
same,physical and chemical stability (conclusion),"[3]; long-term (25° C., 60% RH) and accelerated (40° C., 75% RH) conditions, 6 months",good physical and chemical stability
